Assay results published in ChEMBL document CHEMBL1145566, “Synthesis of BC-ring model of globostellatic acid X methyl ester, an anti-angiogenic substance from marine sponge” (Bioorg Med Chem Lett, 2008).
Calls of active or inactive are those of the source. The rule behind the calls is not given here.

Tests used:
Format in all cases: functional, cell-based
[1] = Antiproliferative activity against human KB3-1 cells after 72 hrs; settings: KB 3-1, 72 h
[2] = system: HUVEC; experiment: Antiproliferative activity against human HUVEC cells after 72 hrs
[3] = system: HUVEC; experiment: Inhibition of VEGF-induced migration in human HUVEC cells
[4] = system: HUVEC; experiment: Inhibition of VEGF-induced tubular formation in human HUVEC cells

Structure (SMILES) | IC50 [1] [µM] | IC50 [2] [µM] | Activity [3] | Activity [4]
CC(C)=C/C=C/C(C)=C/C=C/C(C)=C1/C(=O)C[C@H]2CC3(CC[C@]12C)OCCO3 | 20 | 13 |  | 
CC(C)=C/C=C/C(C)=C/C=C/C(C)=C1/CC[C@H]2CC3(CC[C@]12C)OCCO3 | 21 | 8.8 |  | 
COC(=O)[C@]1(C)[C@@H]2CC[C@]3(C)\C(=C(C)/C=C/C=C(C)/C=C/C=C(C)C)C(=O)C[C@H]3[C@@]2(C)CC[C@H]1OC(C)=O (stereo in doubt) | 14 | 0.09 | Active | Active
COC(=O)[C@]1(C)[C@@H]2CC[C@]3(C)/C(=C(C)/C=C/C=C(C)/C=C/C=C(C)C)C(=O)C[C@H]3[C@@]2(C)CC[C@H]1OC(C)=O (stereo in doubt) |  |  | Active | Active
COC(=O)[C@]1(C)[C@@H]2CC[C@]3(C)/C(=C(C)/C=C/C=C(C)\C=C\C=C(C)C)C(=O)C[C@H]3[C@@]2(C)CC[C@H]1OC(C)=O (stereo in doubt) |  |  | Active | Active
CC(C)=C/C=C/C(C)=C/C=C/C(C)=C1/C(=O)C[C@H]2CC(=O)CC[C@]12C | 17 | 2.6 |  | 
COC(=O)[C@]1(C)[C@@H]2CC[C@]3(C)\C(=C(C)/C=C/C=C(C)\C=C\C=C(C)C)C(=O)C[C@H]3[C@@]2(C)CC[C@H]1OC(C)=O (stereo in doubt) |  |  | Active | Active
